Tests used:
Conditions in all cases: 50 μg peptide per well dried to well; goat anti-mouse/HRP, ABTS
neutralizing mAb A5 = test: ELISA binding of mAb A5 to plate-dried synthetic peptides
Procedure: (§1) A series of enzyme-linked immunosorbent assays (ELISA) were run in which a panel of three neutralizing mab's, identified as A1, A5 and A7 (developed by […] Grossberg at the Medical College of Wisconsin) and a single non-neutralizing mAb, identified as B2b (received from Medical College of Wisconsin, […] and S. Grossberg), was assessed for binding to synthetic peptides IB, IC, IE, and a control. In each case, the peptide was dissolved in 0.05M Tris buffer, pH 9.5 and aliquoted in 100 μl volumes to wells of a microtiter plate (Corning) at a concentration of 50 μg peptide per well. The plate was placed in a vacuum dessicator overnight to dry the peptide to the well. Standard ELISA procedures were followed after the overnight coupling, i.e. common blocking steps, washes, incubation conditions and color development of the appropriate goat anti-mouse/horseradish peroxidase conjugate with ABTS substrate. […] The non neutralizing mAb B2b reacted with peptides IB and IC but not with IE.

non-neutralizing mAb B2b = test: ELISA binding of mAb B2b to plate-dried synthetic peptides
Procedure: as §1

neutralizing mAb A7 = test: ELISA binding of mAb A7 to plate-dried synthetic peptides
Procedure: as §1

## H-IPEEIKQL-OH [peptide IE, NH2-Ile-Pro-Glu-Glu-Ile-Lys-Gln-Leu-COOH]
Neutralizing mAb A5
  Reaction (binding) of mAb A5 with peptide in ELISA: preferential binding
non-neutralizing mAb B2b
  Reaction (binding) of non-neutralizing mAb B2b with peptide in ELISA: not with IE
Neutralizing mAb A7
  Reaction (binding) of mAb A7 with peptide in ELISA: virtually no activity

Source: patent US6682896B1, “Peptides representing epitopic sites on r-IFN-β, antibodies thereto and uses thereof” (Schering Aktiengesellschaft, priority 1988, dated 2004)
